Measured values as given in patent publication US10947213B1 (Merck Patent GmbH, priority 2015, dated 2021).
Where a name gives a salt, the structure may show the parent alone.

These compounds were tested against T1, TLR7/NFKb HEK cells (Homo sapiens, UniProt Q9NYK1) (assay: HEK Cell Assay (TLR7/NFKb reporter, Steady-Glo luciferase readout)). Conditions: 30 min compound preincubation, then R*48 agonist for 5 hours, read-out: Potency.
T1 construct: expressed in transfected cells; host or cells: HEK cells (TLR7/NFKb reporter line)
T1 sequence (Q9NYK1 27-1049): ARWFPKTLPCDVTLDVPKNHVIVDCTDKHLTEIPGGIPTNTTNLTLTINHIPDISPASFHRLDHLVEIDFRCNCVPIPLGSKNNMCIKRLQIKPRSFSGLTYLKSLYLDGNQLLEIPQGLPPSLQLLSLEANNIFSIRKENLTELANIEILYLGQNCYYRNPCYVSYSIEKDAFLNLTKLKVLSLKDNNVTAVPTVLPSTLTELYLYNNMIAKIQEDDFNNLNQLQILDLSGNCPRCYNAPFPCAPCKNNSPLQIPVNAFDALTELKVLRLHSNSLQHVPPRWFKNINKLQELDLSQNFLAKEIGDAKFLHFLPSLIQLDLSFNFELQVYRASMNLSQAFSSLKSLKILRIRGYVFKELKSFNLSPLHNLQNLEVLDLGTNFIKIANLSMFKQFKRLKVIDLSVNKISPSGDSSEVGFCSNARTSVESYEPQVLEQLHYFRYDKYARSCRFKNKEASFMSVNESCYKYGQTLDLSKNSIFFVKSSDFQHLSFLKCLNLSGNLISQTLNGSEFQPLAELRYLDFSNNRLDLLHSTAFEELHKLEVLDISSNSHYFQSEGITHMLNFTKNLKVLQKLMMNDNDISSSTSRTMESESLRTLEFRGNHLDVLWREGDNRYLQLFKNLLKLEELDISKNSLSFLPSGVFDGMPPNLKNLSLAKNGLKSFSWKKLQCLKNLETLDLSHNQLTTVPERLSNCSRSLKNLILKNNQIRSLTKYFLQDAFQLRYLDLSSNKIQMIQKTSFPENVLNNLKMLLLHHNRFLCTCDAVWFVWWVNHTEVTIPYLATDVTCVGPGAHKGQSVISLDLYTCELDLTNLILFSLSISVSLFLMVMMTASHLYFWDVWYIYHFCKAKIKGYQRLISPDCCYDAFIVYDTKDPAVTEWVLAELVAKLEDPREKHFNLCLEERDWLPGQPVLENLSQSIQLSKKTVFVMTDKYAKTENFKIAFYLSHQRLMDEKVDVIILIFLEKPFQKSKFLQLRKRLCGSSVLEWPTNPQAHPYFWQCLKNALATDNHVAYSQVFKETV
Type: cell-based
How it was run: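 Steady-Glo luminescence after 5 h stimulation with R*48 agonist, following 30 min compound preincubation. Assay run in HEK cells carrying a TLR7/NFKb luciferase reporter, plated at 5000 cells/well and grown 24 h at 37° C (10% CO2) before treatment.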

`C[C@H]1C[C@@H](NC(=O)C(N)C2CC2)CN(c2ccc(C(F)(F)F)c3nccnc23)C1` (stereo partly drawn) [Compound 294, 2-amino-2-cyclopropyl-N-[(3R,5S)-5-methyl-1-[8-(trifluoromethyl)quinoxalin-5-yl]piperidin-3-yl]acetamide] and `C[C@H]1C[C@@H](NC(=O)CC2CN(C)C2)CN(c2ccc(C(F)(F)F)c3nccnc23)C1` [Compound 363, N-[(3R,5S)-5-methyl-1-[8-(trifluoromethyl)quinoxalin-5-yl]piperidin-3-yl]-2-(1-methylazetidin-3-yl)acetamide] cannot be ordered by IC50: under 1000 nM for the first, under 1000 nM for the second.

Compared with `C[C@H]1C[C@@H](NC(=O)CN(C)C)CN(c2ncc(F)c3nccnc23)C1` [Compound 460, 2-Dimethylamino-N-[(3R,5S)-1-(8-fluoro-pyrido[3,4-b]pyrazin-5-yl)-5-methyl-piperidin-3-yl]-acetamide], `C[C@H]1C[C@@H](NC(=O)CN(C)C)CN(c2ccnc3nccnc23)C1` [Compound 33, 2-(dimethylamino)-N-((3R,5S)-5-methyl-1-(pyrido[2,3-b]pyrazin-8-yl)piperidin-3-yl)acetamide] is lower in IC50: over 10000 nM for the first, 1000 to 10000 nM for the second. The second is the more potent here.

`CC1CC(C(=O)NCC2CCN(C)CC2)CN(c2ccc(C#N)c3nccnc23)C1` (stereo not shown) [Compound 539, 1-(8-Cyano-quinoxalin-5-yl)-5-methyl-piperidine-3-carboxylic acid (1-methyl-piperidin-4-ylmethyl)-amide] and `CC(C(=O)N[C@@H]1C[C@H](C)CN(c2ccc(C#N)c3nccnc23)C1)N1CCC(O)CC1` (stereo partly drawn) [Compound 275, N-[(3R,5S)-1-(8-cyanoquinoxalin-5-yl)-5-methylpiperidin-3-yl]-2-(4-hydroxypiperidin-1-yl)propanamide] cannot be ordered by IC50: under 1000 nM for the first, under 1000 nM for the second.

First: C[C@H]1C[C@@H](NC(=O)CN2CC(N)C2)CN(c2ccc(C(F)F)c3ncccc23)C1 [Compound 304, 2-(3-aminoazetidin-1-yl)-N-[(3R,5S)-1-[8-(difluoromethyl)quinolin-5-yl]-5-methylpiperidin-3-yl]acetamide]
Second: C[C@H]1C[C@@H](NC(=O)CN2CC(O)C2)CN(c2ccc(C(F)F)c3nccnc23)C1 [Compound 320, N-[(3R,5S)-1-[8-(difluoromethyl)quinoxalin-5-yl]-5-methylpiperidin-3-yl]-2-(3-hydroxyazetidin-1-yl)acetamide]
The IC50 of the first is lower: under 1000 nM for the first, 1000 to 10000 nM for the second. The first is the more potent here.

First: CC(C(=O)NC1CN(c2ccc(C#N)c3nccnc23)CC(F)(F)C1)N1CCOCC1 (stereo not shown) [Compound 509, N-[1-(8-Cyano-quinoxalin-5-yl)-5,5-difluoro-piperidin-3-yl]-2-morpholin-4-yl-propionamide]
Second: CC1(C)C[C@@H](NC(=O)C(N)C(F)(F)F)CN(c2ccc(C#N)c3nccnc23)C1 (single isomer, unassigned) [Compound 211]
The IC50 of the first is higher: over 10000 nM for the first, 1000 to 10000 nM for the second. The second is the more potent here.

`O=C(NCCN1CCCCC1)C1CCN(c2ccnc3nccnc23)CC1` [Compound 373, 1-Pyrido[2,3-b]pyrazin-8-yl-piperidine-4-carboxylic acid (2-piperidin-1-yl-ethyl)-amide] and `C[C@@H]1CN(c2ccnc3nccnc23)C[C@H](CN2CCC(N3CCCC3)CC2)O1` [Compound 56, (2R,6S)-2-methyl-4-(pyrido[2,3-b]pyrazin-8-yl)-6-((4-(pyrrolidin-1-yl)piperidin-1-yl)methyl)morpholine] fall in the same range of IC50: 1000 to 10000 nM for the first, 1000 to 10000 nM for the second.

Compared with `N[C@H]1C[C@@H](C2CC2)CN(c2ccc(F)c3ncccc23)C1` (relative stereo) [Compound 333, cis-5-cyclopropyl-1-(8-fluoroquinolin-5-yl)piperidin-3-amine], `O=C(CN1CCOCC1)N[C@H]1C[C@@H](C2CC2)CN(c2ccc(C(F)(F)F)c3ncccc23)C1` (relative stereo) [Compound 336, cis-N-[5-cyclopropyl-1-[8-(trifluoromethyl)quinolin-5-yl]piperidin-3-yl]-2-(morpholin-4-yl)acetamide] is higher in IC50: under 1000 nM for the first, over 10000 nM for the second. The first is the more potent here.

First: CCN(CC)CCNCC1CCN(c2ccnc3ccc(C(F)(F)F)cc23)CC1 [Compound 377, N,N-Diethyl-N′-[1-(6-trifluoromethyl-quinolin-4-yl)-piperidin-4-ylmethyl]-ethane-1,2-diamine]
Second: CN1CCCC1CNC(=O)C1CCN(c2ccc(C(F)(F)F)c3ncccc23)CC1 (stereo not shown) [Compound 442, 1-(8-Trifluoromethyl-quinolin-5-yl)-piperidine-4-carboxylic acid (1-methyl-pyrrolidin-2-ylmethyl)-amide]
The IC50 of the first is higher: 1000 to 10000 nM for the first, under 1000 nM for the second. The second is the more potent here.

First: CNC(=O)CCC(=O)NC1CC(C(F)(F)F)CN(c2ccc(C#N)c3ncccc23)C1 (racemic) [Compound 492, cis-(N-1-(8-Cyano-quinolin-5-yl)-5-trifluoromethyl-piperidin-3-yl]-N′-methyl-succinamide)]
Second: N#Cc1ccc(N2CC(NC(=O)CC3(N)CCCCC3)CC(C(F)(F)F)C2)c2cccnc12 (single isomer, unassigned) [Compound 497]
The IC50 of the first is higher: 1000 to 10000 nM for the first, under 1000 nM for the second. The second is the more potent here.

`N#Cc1ccc(N2C[C@H](NCCC(F)(F)F)C[C@H](C(F)(F)F)C2)c2nccnc12` (relative stereo) [Compound 95, cis-8-[3-(trifluoromethyl)-5-[(3,3,3-trifluoropropyl)amino]piperidin-1-yl]quinoxaline-5-carbonitrile] and `COCCN[C@@H]1C[C@H](C2CC2)CN(c2ccc(C#N)c3nccnc23)C1` (relative stereo) [Compound 176, cis-8-[3-cyclopropyl-5-[(2-methoxyethyl)amino]piperidin-1-yl]quinoxaline-5-carbonitrile] fall in the same range of IC50: 1000 to 10000 nM for the first, 1000 to 10000 nM for the second.

`CC(C)[C@H](O)C(=O)N[C@H]1C[C@@H](C(F)(F)F)CN(c2ccnc3nccnc23)C1` [Compound 90, (2S)-2-hydroxy-3-methyl-N-[(3S,5R)-1-[pyrido[2,3-b]pyrazin-8-yl]-5-(trifluoromethyl)piperidin-3-yl]butanamide hydrochloride] and `C[C@H]1C[C@@H](NC(=O)CC(O)C(C)(C)C)CN(c2ccnc3nccnc23)C1` (single isomer, unassigned) [Compound 149] cannot be ordered by IC50: over 10000 nM for the first, over 10000 nM for the second.

`COc1ccc(N2C[C@@H](C)C[C@@H](NC(=O)C(N)C(F)(F)F)C2)c2cccnc12` (single isomer, unassigned) [Compound 191] and `CCN(CC)C(=O)CCC(=O)N[C@@H]1C[C@H](C)CN(c2ccc(C(F)(F)F)c3ncccc23)C1` [Compound 575, N,N-Diethyl-N′-[(3R,5S)-5-methyl-1-(8-trifluoromethyl-quinolin-5-yl)-piperidin-3-yl]-succinamide] fall in the same range of IC50: 1000 to 10000 nM for the first, 1000 to 10000 nM for the second.

Compared with `Cc1ncc(N2C[C@@H](C)C[C@@H](NC(=O)CCC(=O)N3CCC3)C2)c2cccnc12` [Compound 566, 4-Azetidin-1-yl-N-[(3R,5S)-5-methyl-1-(8-methyl-[1,7]naphthyridin-5-yl)-piperidin-3-yl]-4-oxo-butyramide], `C[C@H]1C[C@@H](NC(=O)CN(C)CCO)CN(c2ccnc3nccnc23)C1` [Compound 145, 2-[(2-hydroxyethyl)(methyl)amino]-N-[(3R,5S)-5-methyl-1-[pyrido[2,3-b]pyrazin-8-yl]piperidin-3-yl]acetamide] is higher in IC50: 1000 to 10000 nM for the first, over 10000 nM for the second. The first is the more potent here.

`CCN1CCC[C@H]1C(=O)NCC1CCN(c2ccc(C#N)c3ncccc23)CC1` [Compound 435, (S)-1-Ethyl-pyrrolidine-2-carboxylic Acid [1-(8-cyano-quinolin-5-yl)-piperidin-4-ylmethyl]-amide] and `N#Cc1ccc(N2C[C@@H](NC(=O)CC3(N)CCCCC3)C[C@@H](C(F)(F)F)C2)c2cccnc12` (racemic) [Compound 479, hydrochloride] cannot be ordered by IC50: under 1000 nM for the first, under 1000 nM for the second.
